In BindingDB's records for doi:10.1021/jm980294n (University of Utah, 1998):

Experiments:
[1] = Inhibition of insulin receptor mediated mitogenesis of NIH3T3 cells
[2] = Inhibition of Epidermal growth factor receptor mediated mitogenesis of NIH3T3 cells

Row | IC50 [1] [µM] | IC50 [2] [µM] | SMILES
1 | 9.8 | 22.7 | COc1ccc(Cc2cn(Cc3ccc(O)cc3)c(NC3=NC(=O)N(C)C3=O)n2)cc1 [5-[1-(4-Hydroxy-benzyl)-4-(4-methoxy-benzyl)-1H-imidazol-2-ylamino]-3-methyl-imidazole-2,4-dione]
2 | 242 | 11.3 | COc1ccc(Cc2nc(NC3=NC(=O)N(C)C3=O)n(C)c2Cc2ccc(O)cc2)cc1 [4-(5-(4-hydroxybenzyl)-4-(4-methoxybenzyl)-1-methyl-1H-imidazol-2-ylamino)-1-methyl-1H-imidazole-2,5-dione]
3 | 6.7 | 36.9 | COc1ccc(Cc2cn(Cc3ccc(OC)cc3)c(NC3=NC(=O)N(C)C3=O)n2)cc1 [5-[1,4-Bis-(4-methoxy-benzyl)-1H-imidazol-2-ylamino]-3-methyl-imidazole-2,4-dione]
